Values quoted from earlier work as cited in US20130053422A1, “Antimicrobial Compositions” (priority 2010, published 2013).

Experiments:
Conditions in all cases: after 5 to 60 minutes
Herpes virus type 1 = tested on: Herpes virus type 1
Vaccinia virus = tested on: Vaccinia virus
bovine parainfluenzae 3 = tested on: bovine parainfluenzae 3

CCCCCCCCCCCC(=O)N[C@@H](CCCN=C(N)N)C(=O)OCC [LAE, lauric arginate]
nearly complete reduction: reduction of Herpes virus type 1 (Herpes virus type 1) | reduction of Vaccinia virus (Vaccinia virus) | reduction of bovine parainfluenzae 3 (bovine parainfluenzae 3)
